From ChEMBL document CHEMBL1132003, “2-chloro-3-substituted-1,4-naphthoquinone inactivators of human cytomegalovirus protease” (Bioorg Med Chem Lett, 1999) come the findings set out here.

Experiment [1] has as its system HCMV protease (assemblin, Human betaherpesvirus 5). Briefly: Inhibitory activity against HCMV protease by SPA assay at 150 uM concentration.
For experiment [2], the system named is MRC5. Briefly: Inhibitory activity against HCMV protease in a plaque assay (strain AD169 in MRC-5 cells). As to conditions: Homo sapiens. The experiment is classed as functional, cell-based.
Another experiment has as its target T1, Neutrophil elastase (Homo sapiens, UniProt P08246).
T1 sequence (P08246 whole entry): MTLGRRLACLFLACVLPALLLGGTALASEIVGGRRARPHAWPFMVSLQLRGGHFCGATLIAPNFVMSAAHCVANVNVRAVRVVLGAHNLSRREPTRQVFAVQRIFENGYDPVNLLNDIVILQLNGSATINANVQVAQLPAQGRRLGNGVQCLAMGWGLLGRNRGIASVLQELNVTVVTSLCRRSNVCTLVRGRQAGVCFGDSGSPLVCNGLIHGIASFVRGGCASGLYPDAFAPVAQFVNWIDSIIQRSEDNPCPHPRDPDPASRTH
Briefly: Inhibitory activity against human Elastase […].

In experiment [3] the test system is MRC5. As to the kind of experiment: Inhibitory activity against HCMV in a plaque assay(strain in MRC-5 cells). As to conditions: Homo sapiens. Type of experiment: functional, cell-based.

The structures appear in SMILES notation.

In turn, `CC1(C)CC(=O)C(C2=C(O)C(=O)c3ccccc3C2=O)C(=O)C1` came in with an inhibition in experiment [1] of 11%.

For `CCOC(=O)C(C(C)=O)C1=C(Cl)C(=O)c2ccccc2C1=O` (centres undefined), inhibition in the experiment on MRC5 [2] was half-maximal at 10 µM (IC50).

On to `CC(=O)C(C(=O)OCc1ccccc1)C1=C(Cl)C(=O)c2ccccc2C1=O` (centres undefined), for which, at Neutrophil elastase, half-maximal inhibition (IC50) was put at 30 µM.

Compound `CC(=O)C(C(=O)OC(C)C)C1=C(Cl)C(=O)c2ccccc2C1=O` (centres undefined) returned a half-inhibitory concentration (IC50) with MRC5 [3] of 13 µM. That is a double-digit micromolar value.
